Each compound was assayed against T1, human S1P1 receptor (Homo sapiens, UniProt P21453) (assay: GTP γ35S binding assay for S1P1 activity). Conditions: activity potency, S1P1 receptor from GTP γ35S binding; membranes of cells stably expressing the S1P1 receptor.
T1 construct: expressed in transfected cells; membranes used
Assay type: biochemical
Method: Compounds were synthesized and tested for S1P1 activity using the GTP γ^35S binding assay. These compounds may be assessed for their ability to activate or block activation of the human S1P1 receptor in cells stably expressing the S1P1 receptor.
GTP γ^35S binding was measured in the medium containing (mM) HEPES 25, pH 7.4, MgCl2 10, NaCl 100, dithiothreitol 0.5, digitonin 0.003%, 0.2 nM GTP γ^35S, and 5 μg membrane protein in a volume of 150 μl. Test compounds were included in the concentration range from 0.08 to 5,000 nM unless indicated otherwise. Membranes were incubated with 100 μM 5′-adenylylimidodiphosphate for 30 min, and subsequently with 10 μM GDP for 10 min on ice. Drug solutions and membrane were mixed, and then reactions were initiated by adding GTP γ^35S and continued for 30 min at 25° C. Reaction mixtures were filtered over Whatman GF/B filters under vacuum, and washed three times with 3 mL of ice-cold buffer (HEPES 25, pH7.4, MgCl2 10 and NaCl 100). Filters were dried and mixed with scintillant, and counted for ^35S activity using a β-counter. Agonist-induced GTP γ^35S binding was obtained by subtracting that in the absence of agonist. Binding data were analyzed using a non-linear regression method. In case of antagonist assay, the reaction mixture contained 10 nM […] in the presence of test antagonist at concentrations ranging from 0.08 to 5000 nM.

T1 sequence (P21453 whole entry): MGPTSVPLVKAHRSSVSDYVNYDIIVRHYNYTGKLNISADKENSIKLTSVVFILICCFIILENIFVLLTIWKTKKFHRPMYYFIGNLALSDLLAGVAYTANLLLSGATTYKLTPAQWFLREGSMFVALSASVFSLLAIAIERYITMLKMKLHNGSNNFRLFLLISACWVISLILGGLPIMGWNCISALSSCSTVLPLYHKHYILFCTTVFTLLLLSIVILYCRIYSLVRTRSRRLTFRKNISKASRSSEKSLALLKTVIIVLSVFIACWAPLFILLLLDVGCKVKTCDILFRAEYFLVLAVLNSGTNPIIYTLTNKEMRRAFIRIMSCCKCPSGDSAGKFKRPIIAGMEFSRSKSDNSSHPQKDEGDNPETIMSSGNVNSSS

EC50	Compound
5 nM	CCCCC(CCCOc1ccc(CNCCC(=O)O)cc1)Cc1ccc(C)c(C)c1 (centres unmarked) [Compound 3, 3-[(4-{[4-(3,4-Dimethylbenzyl)octyl]oxy}benzyl)amino]propanoic acid]
4.68 nM	CCCC(CCCOc1ccc(CNCCC(=O)O)cc1)Cc1ccc(C)c(C)c1 (centres unmarked) [Compound 5, 3-[(4-{[4-(3,4-Dimethylbenzyl)heptyl]oxy}benzyl)amino]propanoic acid]
7.46 nM	CCCCCC(CCCOc1ccc(CNCCC(=O)O)cc1)Cc1ccc(C)c(C)c1 (centres unmarked) [Compound 10, 3-[(4-{[4-(3,4-Dimethylbenzyl)nonyl]oxy}benzyl)amino]propanoic acid]
9.84 nM	CCCCC(CCCOc1c(C)cc(CNCCC(=O)O)cc1C)Cc1ccc(C)c(C)c1 (centres unmarked) [Compound 12, 3-[(4-{[4-(3,4-dimethylbenzyl)octyl]oxy}-3,5-dimethylbenzyl)amino]propanoic acid]
6.02 nM	CCCCC(CCCOc1ccc(CNCCC(=O)O)cc1C)Cc1ccc(C)c(C)c1 (centres unmarked) [Compound 14, 3-[(4-{[4-(3,4-Dimethylbenzyl)octyl]oxy}-3-methylbenzyl)amino]propanoic acid]
4.19 nM	CCCCC(CCCOc1ccc(CNCCC(=O)O)cc1Br)Cc1ccc(C)c(C)c1 (centres unmarked) [Compound 16, 3-[(3-Bromo-4-{[4-(3,4-dimethylbenzyl)octyl]oxy}benzyl)amino]propanoic acid]
1.34 nM	CCCCC(CCCOc1ccc(CNCCCP(=O)(O)O)cc1Cl)Cc1ccc(C)c(C)c1 (centres unmarked) [Compound 17, {3-[(3-Chloro-4-{[4-(3,4-dimethylbenzyl)octyl]oxy}benzyl)amino]propyl}phosphonic acid]
1.25 nM	CCCCC(CCCOc1ccc(CNCCC(=O)O)cc1Cl)Cc1ccc(C)c(C)c1 (centres unmarked) [Compound 18, 3-[(3-Chloro-4-{[4-(3,4-dimethylbenzyl)octyl]oxy}benzyl)amino]propanoic acid]
2.7 nM	CCCCC(CCCOc1c(F)cc(CNCCC(=O)O)cc1OC)Cc1ccc(C)c(C)c1 (centres unmarked) [Compound 20, 3-[(4-{[4-(3,4-Dimethylbenzyl)octyl]oxy}-3-fluoro-5-methoxybenzyl)amino]propanoic acid]
2.35 nM	CCCCC(CCCOc1ccc(CNCCCP(=O)(O)O)cc1F)Cc1ccc(C)c(C)c1 (centres unmarked) [Compound 21, {3-[(4-{[4-(3,4-Dimethylbenzyl)octyl]oxy}-3-fluorobenzyl)amino]propyl}phosphonic acid]
15.7 nM	CCCCC(CCCOc1ccc(CNCCC(=O)O)cc1F)Cc1ccc(C)c(C)c1 (centres unmarked) [Compound 22, 3-[(4-{[4-(3,4-Dimethylbenzyl)octyl]oxy}-3-fluorobenzyl)amino]propanoic acid]
11.8 nM	CCCCCC(CCCOc1ccc(CNCCC(=O)O)cc1Cl)Cc1ccc(C)c(C)c1 (centres unmarked) [Compound 26, 3-[(3-Chloro-4-{[4-(3,4-dimethylbenzyl)nonyl]oxy}benzyl)amino]propanoic acid]
54 nM	CCCC(CCCOc1ccc(CNCCC(=O)O)cc1Cl)Cc1ccc(C)c(C)c1 (centres unmarked) [Compound 28, 3-[(3-Chloro-4-{[4-(3,4-dimethylbenzyl)heptyl]oxy}benzyl)amino]propanoic acid]
35.2 nM	CCCC(CCCOc1ccc(CNCCC(=O)O)cc1C)Cc1ccc(C)c(C)c1 (centres unmarked) [Compound 32, 3-[(4-{[4-(3,4-Dimethylbenzyl)heptyl]oxy}-3-methylbenzyl)amino]propanoic acid]

Continued, compound first:

Compound	EC50
CCCCCC(CCCOc1ccc(CNCCCP(=O)(O)O)cc1)Cc1ccc(C)c(C)c1 (centres unmarked) [Compound 1, {3-[(4-{[4-(3,4-Dimethylbenzyl)nonyl]oxy}benzyl)amino]propyl}phosphonic acid]	5.18 nM
CCCCC(CCCOc1ccc(CNCCCP(=O)(O)O)cc1)Cc1ccc(C)c(C)c1 (centres unmarked) [Compound 2, {3-[(4-{[4-(3,4-Dimethylbenzyl)octyl]oxy}benzyl)amino]propyl}phosphonic acid]	12.9 nM
CCCC(CCCOc1ccc(CNCCCP(=O)(O)O)cc1)Cc1ccc(C)c(C)c1 (centres unmarked) [Compound 4, {3-[(4-{[4-(3,4-Dimethylbenzyl)heptyl]oxy}benzyl)amino]propyl}phosphonic acid]	120 nM
CCC(CCCOc1ccc(CNCCCP(=O)(O)O)cc1)Cc1ccc(C)c(C)c1 (centres unmarked) [Compound 6, {3-[(4-{[4-(3,4-Dimethylbenzyl)hexyl]oxy}benzyl)amino]propyl}phosphonic acid]	21.4 nM
CCC(CCCOc1ccc(CNCCC(=O)O)cc1)Cc1ccc(C)c(C)c1 (centres unmarked) [Compound 7, 3-[(4-{[4-(3,4-Dimethylbenzyl)hexyl]oxy}benzyl)amino]propanoic acid]	11.4 nM
CCCCC(CCCOc1c(C)cc(CNCCCP(=O)(O)O)cc1C)Cc1ccc(C)c(C)c1 (centres unmarked) [Compound 11, {3-[(4-{[4-(3,4-Dimethylbenzyl)octyl]oxy}-3,5-dimethylbenzyl)amino]propyl}phosphonic acid]	18.9 nM
CCCCC(CCCOc1ccc(CNCCCP(=O)(O)O)cc1C)Cc1ccc(C)c(C)c1 (centres unmarked) [Compound 13, {3-[(4-{[4-(3,4-Dimethylbenzyl)octyl]oxy}-3-methylbenzyl)amino]propyl}phosphonic acid]	6.54 nM
CCCCC(CCCOc1ccc(CNCCCP(=O)(O)O)cc1Br)Cc1ccc(C)c(C)c1 (centres unmarked) [Compound 15, {3-[(3-Bromo-4-{[4-(3,4-dimethylbenzyl)octyl]oxy}benzyl)amino]propyl}phosphonic acid]	2.29 nM
CCCCC(CCCOc1c(F)cc(CNCCCP(=O)(O)O)cc1OC)Cc1ccc(C)c(C)c1 (centres unmarked) [Compound 19, {3-[(4-{[4-(3,4-dimethylbenzyl)octyl]oxy}-3-fluoro-5-methoxybenzyl)amino]propyl}phosphonic acid]	0.33 nM
CCCCCC(CCCOc1c(C)cc(CNCCCP(=O)(O)O)cc1C)Cc1ccc(C)c(C)c1 (centres unmarked) [Compound 23, {3-[(4-{[4-(3,4-Dimethylbenzyl)nonyl]oxy}-3,5-dimethylbenzyl)amino]propyl}phosphonic acid]	11.9 nM
CCCCCC(CCCOc1ccc(CNCCCP(=O)(O)O)cc1Cl)Cc1ccc(C)c(C)c1 (centres unmarked) [Compound 25, {3-[(3-Chloro-4-{[4-(3,4-dimethylbenzyl)nonyl]oxy}benzyl)amino]propyl}phosphonic acid]	4.83 nM
CCCC(CCCOc1ccc(CNCCCP(=O)(O)O)cc1Cl)Cc1ccc(C)c(C)c1 (centres unmarked) [Compound 27, {3-[(3-chloro-4-{[4-(3,4-dimethylbenzyl)heptyl]oxy}benzyl)amino]propyl}phosphonic acid]	10.9 nM
CCCC(CCCOc1c(C)cc(CNCCCP(=O)(O)O)cc1C)Cc1ccc(C)c(C)c1 (centres unmarked) [Compound 29, {3-[(4-{[4-(3,4-Dimethylbenzyl)heptyl]oxy}-3,5-dimethylbenzyl)amino]propyl}phosphonic acid]	328 nM
CCCC(CCCOc1c(C)cc(CNCCC(=O)O)cc1C)Cc1ccc(C)c(C)c1 (centres unmarked) [Compound 30, 3-[(4-{[4-(3,4-Dimethylbenzyl)heptyl]oxy}-3,5-dimethylbenzyl)amino]propanoic acid]	27.1 nM
CCCC(CCCOc1ccc(CNCCCP(=O)(O)O)cc1C)Cc1ccc(C)c(C)c1 (centres unmarked) [Compound 31, {3-[(4-{[4-(3,4-Dimethylbenzyl)heptyl]oxy}-3-methylbenzyl)amino]propyl}phosphonic acid]	7.89 nM

Reference: patent US20150045328A1, “DISUBSTITUTED ARYL OXY DERIVATIVES AS SPHINGOSINE-1 PHOSPHATE RECEPTORS MODULATORS” (Allergan, Inc., priority 2013, published 2015)
